# Reference: patent US20120101110A1, “Diaza-spiro[5.5]undecanes” (priority 2010, published 2012)
# Read-outs that look alike come from different tables or passages of the source.
# How the values were obtained:
# human orexin 2 receptors [1] = molecular target: T1, human orexin 2 receptors (Homo sapiens, UniProt O43614); assay: Calcium accumulation in cells (FLIPR), hOx2R; format: cell-based; conditions: cells expressing human orexin 2 receptor; inhibition of orexin A-induced calcium accumulation; Cheng and Prusoff correction
# T1 sequence (O43614 1-444): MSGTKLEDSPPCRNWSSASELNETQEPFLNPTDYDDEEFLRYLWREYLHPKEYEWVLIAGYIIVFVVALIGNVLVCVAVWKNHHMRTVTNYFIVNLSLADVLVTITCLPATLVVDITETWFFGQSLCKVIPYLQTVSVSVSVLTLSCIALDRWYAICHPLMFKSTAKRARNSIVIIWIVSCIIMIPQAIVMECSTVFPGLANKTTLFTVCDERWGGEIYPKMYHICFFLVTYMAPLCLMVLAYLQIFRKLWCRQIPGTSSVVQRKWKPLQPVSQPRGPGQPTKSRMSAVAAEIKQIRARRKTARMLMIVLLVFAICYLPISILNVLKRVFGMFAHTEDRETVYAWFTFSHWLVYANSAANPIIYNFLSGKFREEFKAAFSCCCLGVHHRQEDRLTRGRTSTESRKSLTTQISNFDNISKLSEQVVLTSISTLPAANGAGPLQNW
# human orexin 1 receptors [2] = molecular target: T2, human orexin 1 receptors (Homo sapiens, UniProt O43613); assay: Radioligand binding assay ([3H]-SB649868 competition), hOx1R; conditions: competition with about 1 nM [3H]-SB649868; CHO or HEK cell membranes expressing human orexin 1 receptor
# T2 sequence (O43613 1-425): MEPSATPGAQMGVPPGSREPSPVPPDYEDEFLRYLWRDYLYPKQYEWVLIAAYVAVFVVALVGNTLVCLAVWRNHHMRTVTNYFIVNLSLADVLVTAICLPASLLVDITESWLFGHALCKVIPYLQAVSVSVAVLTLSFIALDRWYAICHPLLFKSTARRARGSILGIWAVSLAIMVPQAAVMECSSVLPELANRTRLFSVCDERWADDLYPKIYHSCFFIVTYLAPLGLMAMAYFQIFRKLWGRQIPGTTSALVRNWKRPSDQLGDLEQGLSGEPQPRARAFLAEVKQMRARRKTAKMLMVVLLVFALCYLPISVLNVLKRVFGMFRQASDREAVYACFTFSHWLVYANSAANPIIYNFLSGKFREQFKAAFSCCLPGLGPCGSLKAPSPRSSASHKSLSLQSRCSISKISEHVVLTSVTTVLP
# In short: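 Membranes from hOx1R-expressing cells incubated 1 h at room temperature with about 1 nM [3H]-SB649868 and test compound, in triplicate. Buffer was 10 mM HEPES pH 7.5, 0.5% BSA, 5 mM MgCl2, 1 mM CaCl2, 0.05% tween; 10 μM almorexant defined non-specific binding. Filtration then counting of bound radioactivity; values reported as Kd.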
# human orexin 1 receptors [3] = molecular target: T2, human orexin 1 receptors; assay: Calcium accumulation in cells (FLIPR), hOx1R; conditions: for inhibition at 10 µM: read-out: FLIPR hOx1R % inhibition value
# human orexin 2 receptors [4] = molecular target: T1, human orexin 2 receptors; assay: Radioligand binding assay ([3H]-SB649868 competition), hOx2R
# In short: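 Membranes were incubated 1 h at room temperature in 10 mM HEPES pH 7.5 with 0.5% BSA, 5 mM MgCl2, 1 mM CaCl2 and 0.05% Tween, with about 1 nM [3H]-SB649868 and test compounds in triplicate. Non-specific binding was defined with 10 μM almorexant, and bound radioactivity was counted.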
# [5] = competition with about 1 nM [3H]-SB649868, CHO or HEK cell membranes expressing human orexin 2 receptor, read-out: binding hOx2R Kd
SMILES,Ki (human orexin 2 receptors [1]),Kd (human orexin 1 receptors [2]),inhibition at 10 µM (human orexin 1 receptors [3]),Kd (human orexin 2 receptors [4]; [5]),Ki (human orexin 1 receptors [3]),Kd (human orexin 2 receptors [4])
"N#Cc1ccnc(N2CCC3(CCCC(=O)N3Cc3cccc4[nH]ccc34)CC2)c1 [Example 91, 2-(1-((1H-indol-4-yl)methyl)-2-oxo-1,9-diazaspiro[5.5]undecan-9-yl)isonicotinonitrile]",17 nM,> 10000 nM,26%,270 nM,–,–
"N#Cc1cccc(N2CCC3(CCCC(=O)N3Cc3cccc4[nH]ccc34)CC2)n1 [Example 92, 6-(1-((1H-indol-4-yl)methyl)-2-oxo-1,9-diazaspiro[5.5]undecan-9-yl)picolinonitrile]",104 nM,> 10000 nM,–,1150 nM,2580 nM,–
"Cc1cc(C)nc(N2CCC3(CCCN(Cc4ccccc4-c4ncco4)C3=O)CC2)n1 [Example 93, 9-(4,6-dimethylpyrimidin-2-yl)-2-(2-(oxazol-2-yl)benzyl)-2,9-diazaspiro[5.5]undecan-1-one]",16 nM,4130 nM,–,91 nM,1400 nM,–
"Cc1ccnc(N2CCC3(CCCC(=O)N3Cc3cccc4[nH]c(C)cc34)CC2)n1 [Example 96, 1-((2-methyl-1H-indol-4-yl)methyl)-9-(4-methylpyrimidin-2-yl)-1,9-diazaspiro[5.5]undecan-2-one]",18 nM,1940 nM,–,90 nM,866 nM,–
"Cc1nc(N2CCC3(CCCN(Cc4c[nH]c5ccccc45)C3=O)CC2)ncc1F [Example 102, 2-((1H-indol-3-yl)methyl)-9-(5-fluoro-4-methylpyrimidin-2-yl)-2,9-diazaspiro[5.5]undecan-1-one]",40 nM,1160 nM,–,59 nM,1070 nM,–
"Cc1cc(C)nc(N2CCC3(CCCN(Cc4c[nH]c5c(C)cccc45)C3=O)CC2)n1 [Example 103, 9-(4,6-dimethylpyrimidin-2-yl)-2-((7-methyl-1H-indol-3-yl)methyl)-2,9-diazaspiro[5.5]undecan-1-one]",26 nM,1770 nM,–,35 nM,1900 nM,–
"Cc1ccc2[nH]cc(CN3CCCC4(CCN(c5nc(C)cc(C)n5)CC4)C3=O)c2c1 [Example 104, 9-(4,6-dimethylpyrimidin-2-yl)-2-((5-methyl-1H-indol-3-yl)methyl)-2,9-diazaspiro[5.5]undecan-1-one]",4.8 nM,1020 nM,–,25 nM,292 nM,–
"Cc1cc(C)nc(N2CCC3(CCCN(Cc4c[nH]c5ccc(C#N)cc45)C3=O)CC2)n1 [Example 105, 3-((9-(4,6-dimethylpyrimidin-2-yl)-1-oxo-2,9-diazaspiro[5.5]undecan-2-yl)methyl)-1H-indole-5-carbonitrile]",3.3 nM,655 nM,–,25 nM,295 nM,–
"Cc1cc(C)nc(N2CCC3(CCCN(Cc4n[nH]cc4-c4ccccc4)C3=O)CC2)n1 [Example 106, 9-(4,6-dimethylpyrimidin-2-yl)-2-((4-phenyl-1H-pyrazol-3-yl)methyl)-2,9-diazaspiro[5.5]undecan-1-one]",3.3 nM,1830 nM,–,49 nM,763 nM,–
"Cc1cc(C)nc(N2CCC3(CCCN(Cc4nn(C)cc4-c4ccccc4)C3=O)CC2)n1 [Example 107, 9-(4,6-dimethylpyrimidin-2-yl)-2-((1-methyl-4-phenyl-1H-pyrazol-3-yl)methyl)-2,9-diazaspiro[5.5]undecan-1-one]",20 nM,2250 nM,–,166 nM,833 nM,–
"Cc1cc(C)nc(N2CCC3(CCCN(Cc4nc(C)oc4-c4ccccc4)C3=O)CC2)n1 [Example 108, 9-(4,6-dimethylpyrimidin-2-yl)-2-((2-methyl-5-phenyloxazol-4-yl)methyl)-2,9-diazaspiro[5.5]undecan-1-one]",18 nM,852 nM,–,72 nM,507 nM,–
"Cc1cc(C)nc(N2CCC3(CCCN(Cc4nc(C)sc4-c4ccccc4)C3=O)CC2)n1 [Example 109, 9-(4,6-dimethylpyrimidin-2-yl)-2-((2-methyl-5-phenylthiazol-4-yl)methyl)-2,9-diazaspiro[5.5]undecan-1-one]",42 nM,2560 nM,–,188 nM,1370 nM,–
"COc1cccc(-c2sc(C)nc2CN2CCCC3(CCN(c4nc(C)cc(C)n4)CC3)C2=O)c1 [Example 110, 9-(4,6-dimethylpyrimidin-2-yl)-2-((5-(3-methoxyphenyl)-2-methylthiazol-4-yl)methyl)-2,9-diazaspiro[5.5]undecan-1-one]",3.8 nM,236 nM,–,7 nM,213 nM,–
"CCc1cc(C)nc(N2CCC3(CCCN(Cc4c[nH]c5ccccc45)C3=O)CC2)n1 [Example 111, 2-((1H-indol-3-yl)methyl)-9-(4-ethyl-6-methylpyrimidin-2-yl)-2,9-diazaspiro[5.5]undecan-1-one]",11 nM,835 nM,–,44 nM,761 nM,–
"COc1cc(C)nc(N2CCC3(CCCN(Cc4n[nH]c5ccccc45)C3=O)CC2)n1 [Example 112, 2-((1H-indazol-3-yl)methyl)-9-(4-methoxy-6-methylpyrimidin-2-yl)-2,9-diazaspiro[5.5]undecan-1-one]",6.1 nM,912 nM,–,82 nM,255 nM,–
"Cc1cc(N(C)C)nc(N2CCC3(CCCN(Cc4c[nH]c5ccccc45)C3=O)CC2)n1 [Example 113, 2-((1H-indol-3-yl)methyl)-9-(4-(dimethylamino)-6-methylpyrimidin-2-yl)-2,9-diazaspiro[5.5]undecan-1-one]",21 nM,389 nM,–,28 nM,1430 nM,–
"COc1ccnc(N2CCC3(CCCN(Cc4ccccc4-c4nc(C)no4)C3=O)CC2)n1 [Example 114, 9-(4-methoxypyrimidin-2-yl)-2-(2-(3-methyl-1,2,4-oxadiazol-5-yl)benzyl)-2,9-diazaspiro[5.5]undecan-1-one]",30 nM,2140 nM,–,231 nM,1530 nM,–
"COCc1ccc2[nH]cc(CN3CCCC4(CCN(c5nc(C)cc(C)n5)CC4)C3=O)c2c1 [Example 116, 9-(4,6-dimethylpyrimidin-2-yl)-2-((5-(methoxymethyl)-1H-indol-3-yl)methyl)-2,9-diazaspiro[5.5]undecan-1-one]",0.3 nM,94 nM,–,2 nM,33 nM,–
"Cc1cc(C)nc(N2CCC3(CCCN(Cc4c[nH]c5ccc(-n6cccn6)cc45)C3=O)CC2)n1 [Example 117, 2-((5-(1H-pyrazol-1-yl)-1H-indol-3-yl)methyl)-9-(4,6-dimethylpyrimidin-2-yl)-2,9-diazaspiro[5.5]undecan-1-one]",1.3 nM,1020 nM,–,27 nM,37 nM,–
"Cc1cc(C)nc(N2CCC3(CCCN(Cc4nn(C)nc4Br)C3=O)CC2)n1 [Example 118, 2-((5-bromo-2-methyl-2H-1,2,3-triazol-4-yl)methyl)-9-(4,6-dimethylpyrimidin-2-yl)-2,9-diazaspiro[5.5]undecan-1-one]",79 nM,2110 nM,–,178 nM,3580 nM,–
"COCc1cccc(-c2nn(C)nc2CN2CCCC3(CCN(c4nc(C)cc(C)n4)CC3)C2=O)c1 [Example 119, 9-(4,6-dimethylpyrimidin-2-yl)-2-((5-(3-(methoxymethyl)phenyl)-2-methyl-2H-1,2,3-triazol-4-yl)methyl)-2,9-diazaspiro[5.5]undecan-1-one]",3.9 nM,1330 nM,–,–,868 nM,28 nM
"COc1cccc(-c2nn(C)nc2CN2CCCC3(CCN(c4nc(C)cc(C)n4)CC3)C2=O)n1 [Example 120, 9-(4,6-dimethylpyrimidin-2-yl)-2-((5-(6-methoxypyridin-2-yl)-2-methyl-2H-1,2,3-triazol-4-yl)methyl)-2,9-diazaspiro[5.5]undecan-1-one]",32 nM,> 10000 nM,29%,197 nM,–,–
